Reference: patent US11208387B2, “Macrocyclic broad spectrum antibiotics” (Genentech, Inc., priority 2019, dated 2021)
Values after ≈ are worked out from the molar mass of the structure shown. Read-outs that look alike come from different tables or passages of the source.

Assays:
Assay in all cases: Serum MIC, broth micro-dilution
Format in all cases: cell-based
[1] = tested on: Acinetobacter baumannii ATCC 17978; conditions: Acinetobacter baumannii
How it was run: (§1)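 Plates held at 35 °C for 22 h after adding bacteria to a final OD600 of 0.0005. Medium was a 1:1 mix of mouse serum and cation-adjusted Mueller Hinton II broth. Ten two-fold compound dilutions began at 64, 4, 0.5 or 0.13 μg/mL, per CLSI microdilution.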

[2] = tested on: Escherichia coli strain ATCC 25922; conditions: Escherichia coli, read-out: E. coli 25922 Serum MIC
How it was run: as §1

[3] = tested on: Klebsiella pneumoniae ATCC 700603; conditions: Klebsiella pneumoniae
How it was run: as §1

[4] = tested on: Pseudomonas aeruginosa PA01; conditions: Pseudomonas aeruginosa, read-out: P. aeruginosa 01 Serum MIC
How it was run: as §1

[5] = ATCC17978, 50% v/v mouse serum in Mueller Hinton II cation adjusted Broth, 35° C., 22 hours, Table 4, read-out: A. baumanii 17978 Serum MIC
[6] = ATCC17978, 50% v/v mouse serum in Mueller Hinton II cation adjusted Broth, 35° C., 22 hours, Table 5, read-out: Acinetobacter baumanii 17978 Serum MIC
[7] = ATCC25922, 50% v/v mouse serum in Mueller Hinton II cation adjusted Broth, 35° C., 22 hours, Table 4
[8] = ATCC700603, 50% v/v mouse serum in Mueller Hinton II cation adjusted Broth, 35° C., 22 hours, Table 4, read-out: K pneumoniae 700603 Serum MIC
[9] = PA01, 50% v/v mouse serum in Mueller Hinton II cation adjusted Broth, 35° C., 22 hours, Table 4
[10] = ATCC17978, 50% v/v mouse serum, compounds of Table 1, Table 7, read-out: A. baumanii 17978 Serum MIC
[11] = ATCC25922, 50% v/v mouse serum, compounds of Table 1, Table 7
[12] = ATCC700603, 50% v/v mouse serum, compounds of Table 1, Table 7, read-out: K. pneumoniae 700603 Serum MIC
[13] = PA01, 50% v/v mouse serum, compounds of Table 1, Table 7

| Compound | MIC [1, 5] [µM] | MIC [1, 6] [µM] | MIC [2, 7] [µM] | MIC [3, 8] [µM] | MIC [4, 9] [µM] | other results |
| --- | --- | --- | --- | --- | --- | --- |
| Cc1nc(-c2ccc(C3(C)CC3)cc2)ncc1C(=O)N[C@@H](CNS(N)(=O)=O)C(=O)N(C)[C@@H]1C(=O)N[C@@H](C)C(=O)N[C@H](C(=O)O)Cc2ccc(OC[C@H](O)CN)c(c2)-c2cc1cc(OC[C@H](O)CN)c2O [Example 5, (8S,11S,14S)-18-hydroxy-11-methyl-14-[methyl-[(2S)-2-[[4-methyl-2-[4-(1-methylcyclopropyl)-phenyl]pyrimidine-5-carbonyl]amino]-3-(sulfamoylamino)-propanoyl]amino]-10,13-dioxo-3,17-bis[(2R)-3-amino-2-hydroxy-propoxy]-9,12-diazatricyclo-[13.3.1.12,6]icosa-1(18),2(20),3,5,15(19), 16-hexaene-8-carboxylic acid] | 12 (≈ 11.9 µg/mL) | 12 (≈ 11.9 µg/mL) | 0.63 (≈ 0.624 µg/mL) | 0.88 (≈ 0.872 µg/mL) | 20 (≈ 19.8 µg/mL) |  |
| C[C@@H]1NC(=O)[C@@H](N(C)C(=O)[C@H](CNS(N)(=O)=O)NC(=O)c2c(N)cc(-c3ccc(C(C)(C)C)cc3)nc2Cl)c2cc(OC[C@H](O)CN)c(O)c(c2)-c2cc(ccc2OC[C@H](O)CN)C[C@@H](C(=O)O)NC1=O [Example 37, (8S,11S,14S)-14-[[(2S)-2-[[4-amino-6-(4-tert-butylphenyl)-2-chloro-pyridine-3-carbonyl]amino]-3-(sulfamoylamino)-propanoyl]-methyl-amino]-3,17-bis[(2R)-3-amino-2-hydroxy-propoxy]-18-hydroxy-11-methyl-10,13-dioxo-9,12-diazatri-cyclo[13.3.1.12,6]icosa-1(18),2(20),3,5,15(19), 16-hexaene-8-carboxylic acid] | 8 (≈ 8.22 µg/mL) | 8 (≈ 8.22 µg/mL) | 0.5 (≈ 0.514 µg/mL) | 0.5 (≈ 0.514 µg/mL) | 4 (≈ 4.11 µg/mL) |  |
| Cc1nc(-c2ccc(CC(C)(C)C)cc2)nc(N)c1C(=O)N[C@@H](CNS(N)(=O)=O)C(=O)N(C)[C@@H]1C(=O)N[C@@H](C)C(=O)N[C@H](C(=O)O)Cc2ccc(OC[C@H](O)CN)c(c2)-c2cc1cc(OC[C@H](O)CN)c2O [Example 42, (8S,11S,14S)-14-[[(2S)-2-[[4-amino-2-[4-(2,2-dimethyl-propyl)phenyl]-6-methyl-pyrimidine-5-carbonyl]amino]-3-(sulfamoylamino)-propanoyl]-methyl-amino]-3,17-bis[(2R)-3-amino-2-hydroxy-propoxy]-18-hydroxy-11-methyl-10,13-dioxo-9,12-diazatri-cyclo[13.3.1.12,6]icosa-1(18),2(20),3,5,15(19), 16-hexaene-8-carboxylic acid] | 8 (≈ 8.18 µg/mL) | 8 (≈ 8.18 µg/mL) | 0.5 (≈ 0.511 µg/mL) | 0.75 (≈ 0.767 µg/mL) | 4 (≈ 4.09 µg/mL) |  |
| CCCCc1ccc(-c2nc(C)c(C(=O)N[C@@H](CNS(N)(=O)=O)C(=O)N(C)[C@@H]3C(=O)N[C@@H](C)C(=O)N[C@H](C(=O)O)Cc4ccc(OC[C@H](O)CN)c(c4)-c4cc3cc(OC[C@H](O)CN)c4O)c(N)n2)cc1 [Example 36, (8S,11S,14S)-14-[[(2S)-2-[[4-amino-2-(4-butylphenyl)-6-methyl-pyrimidine-5-carbonyl]amino]-3-(sulfamoylamino)-propanoyl]-methyl-amino]-3,17-bis[(2R)-3-amino-2-hydroxy-propoxy]-18-hydroxy-11-methyl-10,13-dioxo-9,12-diazatri-cyclo[13.3.1.12,6]icosa-1(18),2(20),3,5,15(19), 16-hexaene-8-carboxylic acid] | 16 (≈ 16.1 µg/mL) | 16 (≈ 16.1 µg/mL) | 0.75 (≈ 0.756 µg/mL) | 1 (≈ 1.01 µg/mL) | 16 (≈ 16.1 µg/mL) |  |
| C[C@@H]1NC(=O)[C@@H](N(C)C(=O)[C@H](CCN)NC(=O)c2cnn(-c3ccc(C(C)(C)C)cc3)c(=O)c2)c2cc(OC[C@H](O)CN)c(O)c(c2)-c2cc(ccc2OC[C@H](O)CN)C[C@@H](C(=O)O)NC1=O [Example 17, (8S,11S,14S)-18-hydroxy-11-methyl-14-[methyl-[(2S)-4-amino-2-[[1-(4-tert-butylphenyl)-6-oxo-pyridazine-4-carbonyl]amino]-butanoyl]amino]-10,13-dioxo-3,17-bis[(2R)-3-amino-2-hydroxy-propoxy]-9,12-diazatricyclo-[13.3.1.12,6]icosa-1(18),2(20),3,5,15(19), 16-hexaene-8-carboxylic acid] |  |  |  |  |  | MIC ([1]; ATCC17978, 22 h, read-out: A. baumanii 17978 Serum MIC): 16 µM (≈ 14.9 µg/mL); MIC ([1]; ATCC17978, 22 h, read-out: Acinetobacter baumanii 17978 Serum MIC): 16 µM (≈ 14.9 µg/mL); MIC ([2]; ATCC25922, 22 h): 1 µM (≈ 0.93 µg/mL); MIC ([3]; ATCC700603, 22 h, read-out: K pneumoniae 700603 Serum MIC): 1 µM (≈ 0.93 µg/mL); MIC ([4]; PA01, 22 h): 64 µM (≈ 59.5 µg/mL) |
| CCCCCCOc1ccc(-c2nc(C)c(C(=O)N[C@@H](CCN)C(=O)N(C)[C@@H]3C(=O)N[C@@H](C)C(=O)N[C@H](C(=O)O)Cc4ccc(OCCN)c(c4)-c4cc3ccc4OCCN)c(C)n2)cc1 (racemic) [Example 641] |  |  |  |  |  | MIC [1, 10]: 64 µM (≈ 58.2 µg/mL); MIC [2, 11]: 0.75 µM (≈ 0.683 µg/mL); MIC [3, 12]: 1 µM (≈ 0.91 µg/mL); MIC [4, 13]: 64 µM (≈ 58.2 µg/mL) |
| Cc1nc(-c2ccc(C(C)(C)C)cc2)ncc1C(=O)N[C@@H](CN)C(=O)N(C)[C@@H]1C(=O)N[C@@H](C)C(=O)N[C@H](C(=O)O)Cc2ccc(OC[C@H](O)CN)c(c2)-c2cc1cc(OC[C@H](O)CN)c2O [Example 31, (8S,11S,14S)-18-hydroxy-11-methyl-14-[methyl-[(2S)-3-amino-2-[[2-(4-tert-butylphenyl)-4-methyl-pyrimidine-5-carbonyl]amino]-propanoyl]amino]-10,13-dioxo-3,17-bis[(2R)-3-amino-2-hydroxy-propoxy]-9,12-diazatricyclo-[13.3.1.12,6]icosa-1(18),2(20),3,5,15(19), 16-hexaene-8-carboxylic acid] | 32 (≈ 29.2 µg/mL) | 32 (≈ 29.2 µg/mL) | 1 (≈ 0.914 µg/mL) | 0.75 (≈ 0.686 µg/mL) | 48 (≈ 43.9 µg/mL) |  |
| CCC1(Oc2ccc(-c3nc(C)c(C(=O)N[C@@H](CCN)C(=O)N(C)[C@@H]4C(=O)N[C@@H](C)C(=O)N[C@H](C(=O)O)Cc5ccc(OCCN)c(c5)-c5cc4ccc5OCCN)c(C)n3)cc2)CC1 (racemic) [Example 639] |  |  |  |  |  | MIC [1, 10]: 64 µM (≈ 57.2 µg/mL); MIC [2, 11]: 0.5 µM (≈ 0.447 µg/mL); MIC [3, 12]: 1 µM (≈ 0.894 µg/mL); MIC [4, 13]: 64 µM (≈ 57.2 µg/mL) |
| Cc1nc(-c2ccc(C(C)(C)C)cc2)nc(C)c1C(=O)N[C@@H](CCN)C(=O)N(C)[C@@H]1C(=O)N[C@@H](C)C(=O)N[C@H](C(=O)O)Cc2cc(OCCN)c(O)c(c2)-c2cc1ccc2O (racemic) [Example 561-15] |  |  |  |  |  | MIC [1, 10]: 64 µM (≈ 53.7 µg/mL); MIC [2, 11]: 2 µM (≈ 1.68 µg/mL); MIC [3, 12]: 4 µM (≈ 3.36 µg/mL); MIC [4, 13]: 64 µM (≈ 53.7 µg/mL) |

Further lines, with some results ahead:

| MIC [1, 5] [µM] | MIC [1, 6] [µM] | MIC [2, 7] [µM] | MIC [3, 8] [µM] | MIC [4, 9] [µM] | Compound | other results |
| --- | --- | --- | --- | --- | --- | --- |
| 16 (≈ 16.7 µg/mL) | 16 (≈ 16.7 µg/mL) | 0.38 (≈ 0.397 µg/mL) | 0.5 (≈ 0.522 µg/mL) | 3 (≈ 3.13 µg/mL) | C[C@@H]1NC(=O)[C@@H](N(C)C(=O)[C@H](CNS(N)(=O)=O)NC(=O)c2c(N)cc(-c3ccc(C(C)(C)C)cc3O)nc2Cl)c2cc(OC[C@H](O)CN)c(O)c(c2)-c2cc(ccc2OC[C@H](O)CN)C[C@@H](C(=O)O)NC1=O [Example 61, (8S,11S,14S)-18-hydroxy-11-methyl-14-[methyl-[(2S)-2-[[4-amino-6-(4-tert-butyl-2-hydroxy-phenyl)-2-chloro-pyridine-3-carbonyl]-amino]-3-(sulfamoyl-amino)propanoyl]-amino]-10,13-dioxo-3,17-bis[(2R)-3-amino-2-hydroxy-propoxy]-9,12-diazatricyclo-[13.3.1.12,6]icosa-1(18),2(20),3,5,15(19), 16-hexaene-8-carboxylic acid] |  |
| 16 (≈ 16.1 µg/mL) | 16 (≈ 16.1 µg/mL) | 0.5 (≈ 0.504 µg/mL) | 1 (≈ 1.01 µg/mL) | 8 (≈ 8.06 µg/mL) | Cc1cc(-c2ccc(C(C)(C)C)cc2)nc(N)c1C(=O)N[C@@H](CNS(N)(=O)=O)C(=O)N(C)[C@@H]1C(=O)N[C@@H](C)C(=O)N[C@H](C(=O)O)Cc2ccc(OC[C@H](O)CN)c(c2)-c2cc1cc(OC[C@H](O)CN)c2O [Example 49, (8S,11S,14S)-14-[[(2S)-2-[[2-amino-6-(4-tert-butylphenyl)-4-methyl-pyridine-3-carbonyl]amino]-3-(sulfamoylamino)-propanoyl]-methyl-amino]-3,17-bis[(2R)-3-amino-2-hydroxy-propoxy]-18-hydroxy-11-methyl-10,13-dioxo-9,12-diazatri-cyclo[13.3.1.12,6]icosa-1(18),2(20),3,5,15(19), 16-hexaene-8-carboxylic acid] |  |
| 24 (≈ 24.5 µg/mL) | 24 (≈ 24.5 µg/mL) | 2 (≈ 2.04 µg/mL) | 1.5 (≈ 1.53 µg/mL) | 16 (≈ 16.4 µg/mL) | Cc1nc(-c2ccc(C(C)(C)C)cc2)nc(N)c1C(=O)N[C@@H](CCNS(N)(=O)=O)C(=O)N(C)[C@@H]1C(=O)N[C@@H](C)C(=O)N[C@H](C(=O)O)Cc2ccc(OC[C@H](O)CN)c(c2)-c2cc1cc(OC[C@H](O)CN)c2O [Example 76, (8S,11S,14S)-14-[[(2S)-2-[[4-amino-2-(4-tert-butylphenyl)-6-methyl-pyrimidine-5-carbonyl]amino]-4-(sulfamoylamino)-butanoyl]-methyl-amino]-3,17-bis[(2R)-3-amino-2-hydroxy-propoxy]-18-hydroxy-11-methyl-10,13-dioxo-9,12-diazatricyclo-[13.3.1.12,6]icosa-1(18),2(20),3,5,15(19), 16-hexaene-8-carboxylic acid] |  |
